# “And” between values parts separate entries of the source, which are not always exact repeats. Equal values may be shown once.
# Key:
# Type in all cases: cell-based
# HIV-1(IIIB) = assay: microbe, parasite or virus in culture; details: CEM cells
# Protocol: (§1) To study the antiviral activity in transformed cells, CEM cells were suspended in fresh culture medium and infected with HIV-1(IIIB) or HIV-2(ROD) at 100 x CCID50 (cell culture infective dose 50%) per ml of cell suspension. Infected cell suspension (100 μl; 3 x 10^5 cells/ml) was transferred to a 96-well microplate, mixed with 100 μl of the appropriate dilutions of compounds, and further incubated at 37°C. After 4 days, giant cell formation was recorded microscopically and the number of giant cells was estimated microscopically as percentage of the number of giant cells present in the non-treated virus-infected cell cultures.
# HIV-2(ROD) = assay: Inhibition of HIV-2(ROD)-induced giant cell formation in CEM cell cultures; details: CEM cells
# Protocol: as §1
# [1] = test system: HuT-78/HIV-1 and Sup-T1 cells; assay: cells; details: cocultures of HuT-78/HIV-1 and Sup-T1 cells, ~24 hours; read-out: IC50 inhibition of syncytia formation
# Protocol: Persistently infected HuT-78/HIV-1 cells were thoroughly washed to eliminate free virions. Next, 1 x 10^5 HuT-78/HIV-1 cells were co-cultivated with 1 x 10^5 Sup-T1 cells in 96-well plates (200 μl/well) during 20 h at 37°C, in the presence or absence of a serial dilution of compound. Afterwards, the formation of syncytia was evaluated microscopically. The EC50 was defined as the compound concentration required to suppress syncytia formation by 50%.
# HIV-1(BaL) = assay: Antiviral activity in PHA-stimulated PBMCs (p24 ELISA), HIV-1(BaL); details: PHA-stimulated PBMCs; mean ± SD; read-out: EC50 HIV-1 (BAL)
# Protocol: To test the antiviral activity in fresh, PHA-stimulated PBMCs, an experiment was performed as previously described. Briefly, the cells were preincubated with HIV-1(IIIB), HIV-1(BaL) or HIV-1(HE) for 1 h at 37°C, using a viral load of 1000 x CCID50 per ml. Then, cell suspensions containing virus and 2 x 10^5 PBMCs were seeded in a 96-well microtiter plate and a serial dilution of compound was added, in a total volume of 200 μl. After 4 days, the cells were passaged and fresh culture medium, containing IL-2 and compound, was added. Three days later, cellular supernatants were harvested and viral replication in the presence of the compounds was quantified using a p24 enzyme-linked immunosorbent assay (ELISA) (Perkin Elmer, Brussels, Belgium). The half maximal effective concentration (EC50) was defined as the compound concentration that is required to block viral replication by 50%.
substance,measurement,setting,value
6-(butyltelluro)-6-deoxy-β-cyclodextrin [TE-2],Ratio IC50/EC50 HIV-1 (CEM),HIV-1(IIIB),227
same,EC50,"HIV-1(IIIB); concentration required to protect against cytopathogenicity of HIV by 50%, mean ± SD, read-out: EC50 HIV-1 (IIIB)",1100 ± 250 nM
same,antiviral selectivity SI = IC50/EC50,HIV-1(IIIB); over HIV-1 and HIV-2,167–227 and > 100
same,Ratio IC50/EC50 HIV-2 (CEM),HIV-2(ROD),167
same,EC50,"HIV-2(ROD); concentration required to protect against cytopathogenicity of HIV by 50%, mean ± SD, read-out: EC50 HIV-2 (ROD)",1500 ± 520 nM
same,IC50,[1],> 250000 nM
same,EC50,HIV-1(BaL),≥ 25000 nM
